Columns and labels:
Assay type in all cases: in vivo, human
[1] = system: inflammatory breast cancer; assay: Phase 1b/2 rebastinib + paclitaxel, Part 2 Cohort 2 (RECIST v1.1)
Description: (§1) Upon determination of the RP2D, Part 2 is initiated to dose up to 165 evaluable patients using the RP2D across five indication-specific cohorts. A Simon's two-stage design is applied to Part 2 to further evaluate the safety, tolerability, and preliminary efficacy of rebastinib in combination with paclitaxel in triple-negative breast (Cohort 1), inflammatory breast (Cohort 2), ovarian (Cohort 3), endometrial adenocarcinoma (Cohort 4), and gynecologic carcinosarcoma (Cohort 5) cancers. Each cohort initially enrolls up to 18 evaluable patients in the first stage. Patients must receive at least 1 dose of the combination and have 1 post-baseline assessment (including assessment of clinical progression) or be discontinued prior to the postbaseline disease assessment due to an AE at least possibly related to rebastinib, to be considered evaluable. Tumor response is assessed according to Response Evaluation Criteria in Solid Tumors (RECIST) Version 1.1. The decision to enroll patients beyond the first stage is based on response assessments obtained after the first post-dose response assessment of the last patient enrolled in the first stage of a cohort. […] If ≤4 responses are seen in a cohort, the cohort will be terminated. If >4 responses are seen prior to the last evaluable patient in the first stage, expanding the cohort may be triggered earlier. Enrollment in each cohort will pause between the first and second stage of the Simon two-stage for evaluation of response. Patients will receive study treatment until they develop progressive disease, experience unacceptable toxicity, or withdraw consent.

ovarian cancer = assay: Phase 1b/2 rebastinib + paclitaxel, Part 2 Cohort 3 (RECIST v1.1, CA-125 response)
Description: as §1
29 patients with ovarian cancer were enrolled in this portion of the study as a safety population. Patients were treated with rebastinib (50 or 100 mg BID) in combination with 80 mg/m^2 intravenous weekly paclitaxel (day 1, day 8, and day 15 of repeated 28-day cycles). 10 of the patients treated with rebastinib were at a starting dose of 100 mg BID and 80 mg/m^2 weekly paclitaxel, of which the doses of 7 were reduced to 50 mg BID and 80 mg/m^2 weekly paclitaxel, and […] were at a starting dose of 50 mg BID and 80 mg/m^2 weekly paclitaxel. 23 (79%) patients received ≥4 prior anticancer regimens, and all patients received prior platinum and taxane-based therapy; 89% received anti-angiogenic therapy, 62% received anti-PARP therapy, and 31% received immunotherapy.
24 of the 29 patients met the modified intention-to-treat (mITT) criteria. Anti-tumor activity was assessed using RECIST v1.1 and Gynecological Cancer Intergroup CA-125 response. From 24 patients in the mITT population, the objective response rate was 38% and the clinical benefit rate at 8 weeks was 88%.
38 patients in a platinum-resistant ovarian cancer cohort were enrolled in this portion of the study as a safety population. Patients were treated with rebastinib (50 or 100 mg BID) in combination with 80 mg/m^2 intravenous weekly paclitaxel (day 1, day 8, and day 15 of repeated 28-day cycles). 34 of the 38 patients met the met the modified intention-to-treat (mITT) criteria. 27 (71%) patients received ≥4 prior anticancer regimens, and 97% patients received prior platinum and taxane-based therapy; 84% received bevacizumab, 66% received a PARP inhibitor, 31% received immunotherapy, and the average number of lines of therapy after platinum resistance was 2.

[2] = system: breast cancer, ovarian cancer, and mesothelioma; assay: Phase 1b/2 study of rebastinib in combination with carboplatin
Method: This is a Phase 1b/2 study where patients with mesothelioma are administered rebastinib in combination with carboplatin. The study follows a Simon 2-stage design at the MTD and R2PD. Safety and tolerability, PK and PD, and preliminary efficacy data was used to determine the RP2D. Upon determination of the RP2D or MTD, the Simon 2-stage design is initiated to dose evaluable patients using the RP2D or MTD across three indication-specific cohorts (breast cancer, ovarian cancer, and mesothelioma).
as §1, with “Each” for “Upon determination of the RP2D, Part 2 is initiated to dose up to 165 evaluable patients using the RP2D across five indication-specific cohorts. A Simon's two-stage design is applied to Part 2 to further evaluate the safety, tolerability, and preliminary efficacy of rebastinib in combination with paclitaxel in triple-negative breast (Cohort 1), inflammatory breast (Cohort 2), ovarian (Cohort 3), endometrial adenocarcinoma (Cohort 4), and gynecologic carcinosarcoma (Cohort 5) cancers. Each”, “progression),” for “progression)”
At a second time point, 22 patients were enrolled in the study (3 cohorts: 3 patients at rebastinib 50 mg BID+carboplatin AUC5, 14 patients at rebastinib 100 mg BID+carboplatin AUC5, and 5 pts at rebastinib 100 mg BID+carboplatin AUC6). The median age was 61 yrs. Most frequent diagnoses were breast cancer (n=5); neuroendocrine carcinoma (n=3); pancreatic adenocarcinoma, NSCLC, and cholangiocarcinoma (n=2 each). The median number of prior anti-cancer therapies was 4 (1, 12). Median duration of treatment was 8.4 weeks (0.9, 22.6).

[3] = Cohort 3, time point 1, of the twelve with stable disease at Cycle 3, Day 1, Cycle 5, Day 1
[4] = Cohort 3, time point 1, rebastinib + paclitaxel, Cycle 3, Day 1
[5] = Cohort 3, time point 2, 17 evaluable patients
[6] = Table 1, Cohort 3, time point 4, mITT N = 34, patients (%)
[7] = Table 1, Cohort 3, time point 4, n 12
[8] = time point 1, rebastinib and carboplatin combination

SMILES: CNC(=O)c1cc(Oc2ccc(NC(=O)Nc3cc(C(C)(C)C)nn3-c3ccc4ncccc4c3)c(F)c2)ccn1 [rebastinib]
- Patients with partial response ([1]; Cycle 3, Day 1): two
- Patients with stable disease ([1]; Cycle 3, Day 1): one
- Patients with partial response ([1]; Cycle 3, Day 1, Cycle 5, Day 1, and Cycle 8, Day 1): one
- Patients with stable disease ([1]; both Cycle 3, Day 1 and Cycle 5, Day 1): one
- Patients with partial response (ovarian cancer; [3]): three
- Patients with stable disease (ovarian cancer; [3]): four
- Patients with partial response (second statement) (ovarian cancer; Cohort 3, time point 1, of the twelve with stable disease at Cycle 3, Day 1, Cycle 5, Day 1 (stated a second time)): one
- Patients with stable disease (ovarian cancer; Cohort 3, time point 1, of the twelve with stable disease at Cycle 3, Day 1, Cycle 5, Day 8): one
- Patients with stable disease (ovarian cancer; Cohort 3, time point 1, of the twelve with stable disease at Cycle 3, Day 1, Cycle 8, Day 1): two
- Patients with partial response (ovarian cancer; Cohort 3, time point 1, of the two with partial response at Cycle 3, Day 1, Cycle 5, Day 1): one
- Patients with partial response (ovarian cancer; [4]): Two
- Patients with stable disease (ovarian cancer; [4]): twelve
- CBR (ovarian cancer; [5]): 82%
- ORR (ovarian cancer; [5]): 29%
- Stable diseases (ovarian cancer; [5]): 9
- Partial responses (ovarian cancer; Cohort 3, time point 2, 17 evaluable patients, rebastinib 100 or 50 mg BID + paclitaxel): 5
- Muscular weakness, patients (ovarian cancer; Cohort 3, time point 2, initially 100 mg BID rebastinib (10 patients)): 4 patients
- Muscular weakness at reduced dose (ovarian cancer; Cohort 3, time point 2, reduced dose of 50 mg BID): No additional muscular weakness
- CA-125 response, patients (ovarian cancer; Cohort 3, time point 3, 17 patients with CA-125 measurements): 10 (59%)
- Clinical benefit rate at 8 weeks (ovarian cancer; Cohort 3, time point 3, 24 patients mITT): 88%
- Objective response rate (ovarian cancer; Cohort 3, time point 3, 24 patients mITT, rebastinib 50 or 100 mg BID with weekly paclitaxel 80 mg/m^2): 38%
- CA-125 response (ovarian cancer; Cohort 3, time point 4, 17 of 26 evaluable patients): 65.4%
- Clinical benefit rate at 8 weeks (ovarian cancer; Cohort 3, time point 4, 34 patients mITT): 88%
- Objective response rate (confirmed+unconfirmed) (ovarian cancer; Cohort 3, time point 4, platinum-resistant ovarian cancer, 34 patients mITT, rebastinib 50 or 100 mg BID with weekly paclitaxel 80 mg/m^2): 35%
- Best Overall Response: Confirmed Partial Response (ovarian cancer; [6]): 5 (14.7%)
- Best Overall Response: Not Evaluable (ovarian cancer; [6]): 3 (8.8%)
- Best Overall Response: Partial Response (ovarian cancer; [6]): 12 (35.3%)
- Best Overall Response: Progressive Disease (ovarian cancer; [6]): 1 (2.9%)
- Best Overall Response: Single Response Awaiting Confirmation (ovarian cancer; [6]): 4 (11.8%)
- Best Overall Response: Stable Disease (ovarian cancer; [6]): 18 (52.9%)
- Best Overall Response: Unconfirmed Single Response (ovarian cancer; [6]): 3 (8.8%)
- Duration of Response, Events (%) (ovarian cancer; [7]): 5 (41.7%)
- Time to Response, Mean (SD) (ovarian cancer; [7]): 3.1 (1.3)
- Duration of Response, Kaplan-Meier Median (80% CI) (ovarian cancer; Table 1, Cohort 3, time point 4, n 12, NE: Not evaluated): 5.5 (1.9, NE)
- Tolerability ([2]; time point 1, rebastinib 50 mg and 100 mg BID in combination with carboplatin AUC5): tolerated
- Tolerability ([2]; time point 1, rebastinib 100 mg BID in combination with carboplatin AUC6 (3 patients)): tolerated
- Muscular weakness [2, 8]: No muscular weakness
- Response in the dose escalation cohorts [2, 8]: No response
- Partial response (PR) ([2]; time point 2, 22 patients enrolled, rebastinib 50 or 100 mg BID + carboplatin AUC5 or AUC6, preliminary): 1
- Muscular weakness in the dose expansion cohort ([2]; time point 2, rebastinib 100 mg BID with carboplatin AUC5, RP2D adjusted to 50 mg BID): increased frequency
- CBR at 6 weeks ([2]; time point 2, rebastinib + carboplatin, preliminary): 52%

Reference: US20210275518A1, “METHODS OF USING REBASTINIB IN THE TREATMENT OF DISORDERS” (Deciphera Pharmaceuticals, LLC, priority 2020, published 2021)
